Data reported in US9856228B2, “Peptidyl nitril compounds as dipeptidyl peptidase I inhibitors” (Prozymex A/S, priority 2013, dated 2018).
Where “and” joins values, the source holds several entries; their conditions need not be identical. Equal values may be shown once.

Columns and labels:
[1] = Test for metabolic stability, Human Liver Microsomes; format: in vitro ADME; conditions: for Metabolic stability human microsomes t½: human liver microsomes 1.0 mg/mL; for Metabolic stability human microsomes t½ / half-life at 5 μM: 5 μM test compound, NADPH; for half-life at 5 μM: human, liver microsomes, pH 7.4, human liver microsomes 1.0 mg/mL, read-out: Metabolic stability human microsomes t½
Method: (§1) The test for metabolic stability was performed by Absorption System, Exton, Pa. 19341, USA.
(§2) The test compound (DPPI inhibitor) was dissolved in 100% DMSO at a concentration of 10 mM. The reaction mixture, consisted of Mouse or Human Liver Microsomes (1.0 mg/mL), 1 mM NADPH, 100 nnM Potassium Phosphate, pH 7.4, 10 mM Magnesium Chloride and test compound at a concentration of 5 μM.
(§3) An aliquot of the reaction mixture (without cofactors) was incubated in a shaking water bath at 37° C. for 3 minutes. Another aliquot of the reaction mixture was prepared as the negative control. The test compound was added into both the reaction mixture and the negative control at a final concentration of 5 μM.
(§4) The reaction was initiated by the addition of NADPH to 1 mM (not into the negative controls) and then incubated in a shaking water bath at 37° C. Aliquots (100 μL) were withdrawn at 0, 10, 20, 30, and 60 minutes or at 0, 15, 30 and 60 minutes and combined with 900 μL of ice-cold 50/50 acetonitrile/dH2O to terminate the reaction. A control (testosterone) was run simultaneously with the test compound in a separate reaction. LC/MS/MS is used to determine the peak area response ratio (peak area corresponding to test compound or control divided by that of an analytical internal standard). The natural log of the percent remaining was plotted versus time. A linear fit was used to determine the rate constant. The fit was truncated if the percent remaining of test compound was less than 10%. The elimination half-lives associated with the disappearance of the test and control compounds were determined to compare their relative metabolic stability.

[2] = Test for metabolic stability, Mouse Liver Microsomes; format: in vitro ADME; conditions: for Metabolic stability mouse microsomes t½: mouse liver microsomes 1.0 mg/mL; for Metabolic stability mouse microsomes t½ / half-life at 5 μM: 5 μM test compound, NADPH; for half-life at 5 μM: mouse, liver microsomes, pH 7.4, mouse liver microsomes 1.0 mg/mL, read-out: Metabolic stability mouse microsomes t½
Method: as §1, §2, §3, §4

CYP2C9 = target: T1, CYP2C9 (Homo sapiens, UniProt P11712); experiment: Test for inhibition of CYP2C9 in Human Liver Microsomes; format: in vitro ADME; conditions: pooled Human Liver Microsomes, 6 μM diclofenac; read-out: CYP inhibition IC50 CYP2C9
T1 construct: incubated with pooled Human Liver Microsomes (0.25 mg protein/mL); from tissue; host or cells: pooled human liver microsomes
T1 sequence (P11712 whole entry): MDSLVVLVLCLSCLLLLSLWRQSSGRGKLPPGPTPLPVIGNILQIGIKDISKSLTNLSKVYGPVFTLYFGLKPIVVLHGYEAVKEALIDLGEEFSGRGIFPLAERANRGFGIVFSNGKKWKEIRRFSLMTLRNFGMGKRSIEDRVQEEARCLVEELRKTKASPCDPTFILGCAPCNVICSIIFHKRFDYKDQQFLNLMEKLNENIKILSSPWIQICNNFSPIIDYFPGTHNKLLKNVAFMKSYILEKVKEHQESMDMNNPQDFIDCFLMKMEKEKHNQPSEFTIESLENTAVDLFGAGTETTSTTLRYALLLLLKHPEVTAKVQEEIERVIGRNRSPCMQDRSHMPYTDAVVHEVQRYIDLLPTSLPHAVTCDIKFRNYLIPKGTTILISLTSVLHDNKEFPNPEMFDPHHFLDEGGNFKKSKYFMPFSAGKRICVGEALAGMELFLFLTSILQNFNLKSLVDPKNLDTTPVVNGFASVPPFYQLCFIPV
Method: (§5) The test for inhibition of CYP2C9, CYP2D6 and CYP3A4 enzymes was performed by Absorption System, Exton, Pa. 19341, USA according to the procedure described below.
(§6) The IC50 values of Example 1 of WO2012119941 (PZ1024) and the compound of the present invention (PZ1025) for CYP enzymes (CYP2C9, CYP2D6, and CYP3A4) in Human Liver Microsomes were measured. […] After a period of incubation, the samples were treated by the addition of protein precipitation solvent and centrifuged. CYP enzyme activities were measured by determining the formation of the CYP probe metabolites by LC-MS/MS, and the IC50 (the concentration of an inhibitor causing 50% inhibition) was estimated using GraphPad Prism® software by fitting the experimental data (percent of control activity remaining at each concentration of test compound) to a sigmoidal model and non-linear regression analysis.
(§7) The CYP enzyme activities in the Human Liver Microsomes were verified in parallel by determining the inhibition of positive inhibitors on the CYP enzyme activities (sulfaphenazole, quinidine and ketoconazole for CYP2C9, CYP2D6, and CYP3A4, respectively).

CYP2D6 = target: T2, CYP2D6 (Homo sapiens, UniProt P10635); experiment: Test for inhibition of CYP2D6 in Human Liver Microsomes; format: in vitro ADME; conditions: pooled Human Liver Microsomes, 7 μM bufuralol; read-out: CYP inhibition IC50 CYP2D6
T2 construct: incubated with pooled Human Liver Microsomes (0.25 mg protein/mL); from tissue; host or cells: pooled human liver microsomes
T2 sequence (P10635 whole entry): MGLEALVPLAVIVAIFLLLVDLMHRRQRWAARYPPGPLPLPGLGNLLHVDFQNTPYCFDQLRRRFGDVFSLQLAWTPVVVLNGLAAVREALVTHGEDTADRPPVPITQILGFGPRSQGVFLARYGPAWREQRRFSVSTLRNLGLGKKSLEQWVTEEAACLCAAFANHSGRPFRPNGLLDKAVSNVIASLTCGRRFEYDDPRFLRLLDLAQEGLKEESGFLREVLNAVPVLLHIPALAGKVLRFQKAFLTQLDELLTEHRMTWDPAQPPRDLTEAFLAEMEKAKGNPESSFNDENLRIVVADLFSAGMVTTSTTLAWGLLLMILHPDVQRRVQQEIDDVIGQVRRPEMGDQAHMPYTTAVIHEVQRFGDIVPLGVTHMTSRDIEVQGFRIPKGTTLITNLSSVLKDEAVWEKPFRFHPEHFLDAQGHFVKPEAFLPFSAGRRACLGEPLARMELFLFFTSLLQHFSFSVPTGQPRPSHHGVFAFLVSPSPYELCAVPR
Method: as §5, §6, §7

CYP3A4 = target: T3, CYP3A4 (Homo sapiens, UniProt P08684); experiment: Test for inhibition of CYP3A4 in Human Liver Microsomes; format: in vitro ADME; conditions: pooled Human Liver Microsomes, 75 μM testosterone; read-out: CYP inhibition IC50 CYP3A4
T3 construct: incubated with pooled Human Liver Microsomes (0.25 mg protein/mL); from tissue; host or cells: pooled human liver microsomes
T3 sequence (P08684 whole entry): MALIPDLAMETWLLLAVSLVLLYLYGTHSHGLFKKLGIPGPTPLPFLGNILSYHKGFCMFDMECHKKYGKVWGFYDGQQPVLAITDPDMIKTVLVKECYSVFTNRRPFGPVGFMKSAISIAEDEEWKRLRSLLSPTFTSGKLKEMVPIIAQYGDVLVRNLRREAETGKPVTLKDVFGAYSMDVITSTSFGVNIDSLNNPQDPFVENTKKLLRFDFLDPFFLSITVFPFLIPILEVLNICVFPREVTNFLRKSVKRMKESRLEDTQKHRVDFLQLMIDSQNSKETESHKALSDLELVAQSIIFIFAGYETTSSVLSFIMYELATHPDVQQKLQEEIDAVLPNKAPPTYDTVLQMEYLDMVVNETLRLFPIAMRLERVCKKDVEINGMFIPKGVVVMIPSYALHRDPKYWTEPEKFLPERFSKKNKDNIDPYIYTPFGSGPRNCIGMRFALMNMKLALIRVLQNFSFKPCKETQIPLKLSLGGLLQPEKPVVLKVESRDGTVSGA
Method: as §5, §6, §7

[3] = system: human lymphoblastoid TK6 cells; experiment: Test for cytotoxicity (relative cell proliferation, optical absorbance); format: cell-based; conditions: for highest concentration that does not cross the significance threshold: TK6 strains GenM-T01 and GenM-C01, 24 hour and 48 hour time points, threshold 80% relative cell density
Method: The test for cytotoxicity was performed by Cyprotex Discovery Ltd. 15 Beech lane, Macclesfield, Cheshire, SK10 2DR, UK.
Two strains of cultured human lymphoblastoid TK6 cells was used, GenM-T01 and GenM-C01. A dilution series of each test compound was generated in a 96-well, black microplate with an optically clear base. The plates was analysed at 24 hour and 48 hour time points using a microplate reader, that provides measurements of light absorbance for cells and solutions in the microplates wells.
Cytotoxicity was assessed using relative cell proliferation, quantified using optical absorbance. Cytotoxic compounds are those which reduce relative cell density below a significance threshold set at 80% compared to the vehicle-treated control, at one or more test concentrations.

DPPI [4] = target: T4, DPPI (Homo sapiens, UniProt P53634); experiment: Human DPPI inhibition assay (Gly-Phe-paranitroanilide substrate); format: biochemical; set-up: purchased UNIZYME Laboratories A/S; conditions: Table 1 potency; assay not given
T4 sequence (P53634 231-394 limits assumed): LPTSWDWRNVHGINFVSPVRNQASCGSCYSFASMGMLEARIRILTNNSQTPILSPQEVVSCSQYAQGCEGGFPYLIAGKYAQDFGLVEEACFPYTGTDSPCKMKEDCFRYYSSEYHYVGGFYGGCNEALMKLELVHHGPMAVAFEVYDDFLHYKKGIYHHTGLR
T4 sequence (P53634 25-134 limits assumed): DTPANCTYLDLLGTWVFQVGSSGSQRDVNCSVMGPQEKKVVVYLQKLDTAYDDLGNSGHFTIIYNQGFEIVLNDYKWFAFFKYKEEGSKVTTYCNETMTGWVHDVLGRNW
T4 sequence (P53634 395-463 limits assumed): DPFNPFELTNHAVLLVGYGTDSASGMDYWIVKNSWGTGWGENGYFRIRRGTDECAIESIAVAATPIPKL
Method: Using this assay, the IC50 value of the compound of the invention may be determined using Gly-Phe-paranitroanilide as a DPPI specific substrate.
Assay buffer: 20 mM citric acid (2.1 g citric acid), 150 mM NaCl (4.4 g NaCl) and 2 mM EDTA (370 mg EDTA) was dissolved in 500 mL H2O, and pH was adjusted to 4.5 with HCl.
Substrate: Gly-Phe-paranitroanilide (Sigma Aldrich; Cat. No G0142) was used as the substrate for determination of IC50 values. Km was 2.2 mM. The substrate was solubilized in dinnethylformamid to give a 0.2-0.5 M stock solution, which was then further diluted with stirring in assay buffer to a final concentration of 1 mM.
DPPI: Human DPPI (obtained from UNIZYME Laboratories A/S, DK-2970 Høsholm, Denmark) was stored at −20° C. in a buffer containing 2.5 mM Na-phosphate, 150 mM NaCl, 2 mM cysteamine, 50% glycerol, pH 7.0 at a concentration of 1-2 mg/mL (5-10 μM). This stock solution was diluted 500-1000 times in assay buffer to a concentration of 10-20 nM.
Assay conditions: The assay was performed in 96-well plates. Diluted enzyme (25 μL) was added to the well, followed by 25 μL of test substance in varying concentrations, and the solution was mixed. […] The absorption was measured at 405 nm at 37° C. for every 90 seconds for 12 minutes or every 20 seconds for 4 minutes. […] IC50 was determined using a 4-parameter logistic equation in a non-linear curve fitting routine.

DPPI [5] = target: T4, DPPI; experiment: Cell based DPPI inhibition assay (neutrophil elastase activity in U937 cells); set-up: endogenous in cells; host or cells: U937 cells; conditions: 24 hours, elastase activity readout
Method: Using the cell based assay described below, the biological activity of the compounds of the invention or other DPPI inhibitors may be determined.
Neutrophil elastase enzymatic activities in U937 cells grown in the presence of DPPI inhibitors were measured by methods modified from Méthot N; Rubin J; Guay D; Beaulieu C; Ethier D; Reddy T J; Riendeau D and Percival M D (2007) 3 Biol Chem, 282, 20836-20846. U937 cells were propagated in culture media (RPMI 1640, supplemented with 10% FBS, 10 mM Hepes, 1 mM sodium pyrovate, 100 units/ml of each of penicillin and streptomycin). Cells were seeded in 12-well plates at 0.4×10^6 cells/ml in volumes of 1.5 ml per well in the presence of no or increasing concentrations of DPPI inhibitor. 12 points in duplicate in the range of 0.1 nM to 50 μM inhibitor were tested. After 24 hours cells were harvested, washed with PBS and lysed in 20 mM Tris-HCl, pH 7.5, 100 mM NaCl, 0.2% Triton X-100. […]
The activity of neutrophil elastase was determined by measuring the enzymatic release of chromogenic p-nitroaniline from the substrate MetOSuc-Ala-Ala-Pro-Val-pNA, which leads to an increase in absorbance at 405 nm. Assays were carried out in 96-well plates in a final volume of 200 μL at 37° C., and absorbance was measured 8 times during 21-35 minutes using a plate reader. IC50 was determined using a 4-parameter logistic equation in a non-linear curve fitting routine.

| SMILES | Metabolic stability human microsomes t½ [1] | half-life at 5 μM [1] [min] | Metabolic stability mouse microsomes t½ [2] | half-life at 5 μM [2] [min] | IC50 (CYP2C9) [nM] | IC50 (CYP2D6) [nM] | IC50 (CYP3A4) [nM] | highest concentration that does not cross the significance threshold [3] [µM] | IC50 (DPPI [4]) [nM] | half-life in human liver microsomes, times higher than PZ1024 ([1]; PZ1025 versus PZ1024) | half-life in human liver microsomes, times higher than PZ1032 ([1]; PZ1025 versus PZ1032) | half-life in mouse liver microsomes, times higher than PZ1024 ([2]; PZ1025 versus PZ1024) | half-life in mouse liver microsomes, times higher than PZ1032 ([2]; PZ1025 versus PZ1032) | times less toxic than PZ1024 ([3]; PZ1025 versus PZ1024, TK6 cytotoxicity) | IC50 (DPPI [5]) |
| --- | --- | --- | --- | --- | --- | --- | --- | --- | --- | --- | --- | --- | --- | --- | --- |
| CN1CCN(Cc2ccc(-c3ccc(C[C@@H](C#N)NC(=O)C4(N)CCCCC4)cc3)cc2)CC1 [PZ1024, reference compound] | t½ ≈ 55 min | ~55 | t½ ≈ 10 min | ~10 | > 100000 | 18000 | > 100000 | 15 | 37 |  |  |  |  |  |  |
| CN1CCN(Cc2ccc(-c3ccc(C[C@@H](C#N)NC(=O)C4(N)CCOCC4)cc3)cc2)CC1 [PZ1025, (S)-4-amino-N-(1-cyano-2-(4′-((4-methylpiperazin-1-yl)methyl)biphenyl-4-yl)ethyl)tetrahydro-2H-pyran-4-carboxamide] | t½ > 300 min | > 300 | t½ ≈ 65 min | ~65 | > 100000 | > 100000 | > 100000 | 150 | 34 | more than 5 times | more than 5 times | more than 6 times | about 2 times | at least 5 times | 11 nM and ~11 nM |
| CN1CCN(S(=O)(=O)c2ccc(-c3ccc(C[C@@H](C#N)NC(=O)C4(N)CCOCC4)cc3)cc2)CC1 [PZ1032, reference compound] | t½ ≈ 50 min | 50 | t½ ≈ 35 min | 35 |  |  |  |  |  |  |  |  |  |  | ~11 nM |
